From patent US11242337B2, “Compounds useful for treating gastrointestinal tract disorders” (Ardelyx, Inc., priority 2017, dated 2022) come the findings set out here.

SMILES strings stand for the structures.

In assay [1] the test system is absorption of sodium from the intestinal lumen. The assay can be described thus: Inhibition of intestinal sodium absorption in rats. The note with it: 13-hours post-dose; for response vs control in vivo at 0.03 mg/kg: oral gavage 0.03 mg/kg; for response vs control in vivo at 0.1 mg/kg: oral gavage 0.1 mg/kg; for FFS (1-5): rats, group median fecal form score, 1 normal pellet to 5 liquid fecal streams; for response vs control in vivo at 0.3 mg/kg: oral gavage 0.3 mg/kg. It counts as in vivo, Sprague Dawley rats. As to the method: Urinary sodium excretion and fecal form were measured to assess the ability of selected example compounds to inhibit the absorption of sodium from the intestinal lumen. Eight-week old, male, Sprague Dawley rats were purchased from Envigo (Livermore, Calif.), were housed 2 per cage and acclimated for at least 48 hours before study initiation. Animals were fed. Harlan Teklad Global TD.160470 rodent chow (Madison, Wis.), standard laboratory rodent chow Harlan Teklad Global 2018 with the addition of 0.4% inorganic phosphorous. Animals had ad libitum access to food and water for the duration of the study and were maintained in a temperature and humidity controlled room on a standard light/dark cycle of 6 AM to 6 PM. On the day of study initiation, rats (n=5/group) were dosed by oral gavage with test compound or vehicle (3 mM HCl, 0.01% Tween80) at a dose volume of […]. Immediately after dose administration animals were placed in individual metabolic cages. At 13-hours post-dose, urine samples were collected and fecal form was assessed. In addition, the weight of food consumed over the 13-hour period was measured and recorded. Fecal forms were scored according to a common scale associated with increasing fecal water to the wettest observation in the cage's collection funnel (1, normal pellet; 2, pellet adhering to sides of collection funnel due to moisture; 3, loss of normal pellet shape; 4, complete loss of shape with a blotting pattern; 5, liquid fecal streams evident). Fecal form score (FFS) was calculated for each group as the median of each individual rat's FFS within the group and reported in Table 7. Fecal samples were dried using a lyophilizer for at least 3 days, following which dry weight was recorded and fecal fluid content was calculated based on the difference between the wet and dry stool weights. Fecal fluid content was calculated as a change from the vehicle group mean. For urine samples, the volumes were determined gravimetrically. Urine samples were analyzed on an ion chromatography system (Thermo Fisher ICS-3000 or ICS-5000+) coupled with conductivity detectors. Chromatographic separation of cations was performed using an IonPac CS12A (Thermo Fisher) 2×250 mm analytical column with an isocratic elution using 25 mM methanesulfonic acid. Concentrations were interpolated from a standard curve (prepared in 10 mM HCl) for sodium based on retention time and peak area. Thirteen-s-hour urinary sodium excretion (mg/13-hours) was calculated by multiplying urinary sodium concentration by 13-hour urine volume. The urinary sodium excretion of compound treatment was normalized to dietary sodium intake and expressed as a percentage of the vehicle mean.

The subject of another assay is gastrointestinal transit. The assay can be described thus: Restoration of gastrointestinal motility in opioid induced constipation (loperamide). Particulars: oral gavage 15 mg/kg, loperamide s.c., Evans Blue small intestinal transit 30 minutes. In kind it is in vivo, mice. As for the experimental part: Approximately eight-week old, female, CD1 […] are purchased from Envigo (Livermore, Calif.), are housed 4 per cage and acclimated for at least 48 hours before study initiation. Animals are fed standard laboratory rodent chow Harlan Teklad Global 2018 (Madison, Wis.). Animals have ad libitum access to food and water for the duration of the acclimation period and are maintained in a temperature and humidity controlled room on a standard light/dark cycle of 6 AM to 6 PM. Following an overnight fast, with free access to water, animals are dosed by oral gavage with varying doses of test compound or vehicle (3 mM HCl, 0.01% Tween80), at a dose volume of 5 mL/kg. […] For an individual animal, the length travels by the Evans Blue dye front is divided by the length of the whole small intestine, measured from the pylorus to the cecum, and multiplied by 100, to provide the distance of the small intestine travelled by the dye as a percentage.

[2] abbreviates: Rattus norvegicus, Sprague Dawley rats, read-out: Urinary Na (% of Vehicle, out/in).

`N#Cc1cc(Cl)cc2c1C[C@H](N1CCNCC1)[C@H]2Oc1ccc(S(=O)(=O)NC2CCN(C(=O)CCCNC(=O)NCCCCNC(=O)NCCCC(=O)N3CCC(NS(=O)(=O)c4ccc(O[C@H]5c6cc(Cl)cc(C#N)c6C[C@@H]5N5CCNCC5)cc4)CC3)CC2)cc1` [Example 115]: in assay [1] (Rattus norvegicus, Sprague Dawley rats, oral gavage 0.003 mg/kg, read-out: Urinary Na (% of Vehicle, out/in)), the response vs control in vivo at 0.003 mg/kg was more than 70%. In addition, in assay [1] (Rattus norvegicus, Sprague Dawley rats, oral gavage 0.01 mg/kg, read-out: Urinary Na (% of Vehicle, out/in)), the response vs control in vivo at 0.01 mg/kg was more than 70%. For the same compound, in assay [1] (setting [2]), the response vs control in vivo at 0.03 mg/kg is more than 70%. The response vs control in vivo at 0.1 mg/kg in assay [1] (setting [2]) is less than 40%. Further, the “FFS (1-5)” value in assay [1] (0.003 mg/kg) is reported as 1; in assay [1] (0.01 mg/kg) it was 2; in assay [1] (0.03 mg/kg), 2; in assay [1] (0.1 mg/kg), 2. Besides, the “% Restoration of Transit” value in the assay on gastrointestinal transit is on record as “B (20-40%)”.

Turning to `N#Cc1cc(Cl)cc2c1C[C@H](N1CCNCC1)[C@H]2Oc1ccc(S(=O)(=O)NC2CCN(CCOCCNC(=O)NCCCCNC(=O)NCCOCCN3CCC(NS(=O)(=O)c4ccc(O[C@H]5c6cc(Cl)cc(C#N)c6C[C@@H]5N5CCNCC5)cc4)CC3)CC2)cc1` [Example 123, 4-([(1S,2S)-6-Chloro-4-cyano-2-(piperazin-1-yl)-2,3-dihydro-1H-inden-1-yl]oxy)-N-[1-(20-[4-([4-([(1S,2S)-6-chloro-4-cyano-2-(piperazin-1-yl)-2,3-dihydro-1H-inden-1-yl]oxy)phenyl]sulfonamide]piperidin-1-yl)-7,14-dioxo-3,18-dioxa-6,8,13,15-tetraazaicosyl]piperidin-4-yl)benzenesulfonamide], in assay [1] (setting [2]), the response vs control in vivo at 0.03 mg/kg was more than 70%, the response vs control in vivo at 0.1 mg/kg lay in the range of 40 to 70% and the response vs control in vivo at 0.3 mg/kg was less than 40%. Besides, the “FFS (1-5)” value in assay [1] (0.03 mg/kg) is reported as 3. Also, the “FFS (1-5)” value in assay [1] (0.1 mg/kg) came to 3. The “FFS (1-5)” value in assay [1] (0.3 mg/kg) is reported as 3. Moreover, the “% Restoration of Transit” value in the assay with gastrointestinal transit was “A (<20%)”.

For `C[C@@H]1CN([C@H]2Cc3c(C#N)cc(Cl)cc3[C@@H]2Oc2ccc(S(=O)(=O)N[C@H]3CCN(CCOCCNC(=O)NCCCCNC(=O)NCCOCCN4CC[C@H](NS(=O)(=O)c5ccc(O[C@H]6c7cc(Cl)cc(C#N)c7C[C@@H]6N6CCN[C@H](C)C6)cc5)C4)C3)cc2)CCN1` [Example 132, 4-([(1S,2S)-6-Chloro-4-cyano-2-[(R)-3-methylpiperazin-1-yl]-2,3-dihydro-1H-inden-1-yl]oxy)-N—[(S)-1-(20-[(S)-3-([4-([(1S,2S)-6-chloro-4-cyano-2-[(R)-3-methylpiperazin-1-yl]-2,3-dihydro-1H-inden-1-yl]oxy)phenyl]sulfonamido)pyrrolidin-1-yl]-7,14-diaxo-3,18-dioxa-5,8,13,15-tetraazaicosyl)pyrrolidin-3-yl]benzenesulfonamide; bis(trifluoroacetic acid)], the response vs control in vivo at 0.03 mg/kg in assay [1] (setting [2]) is more than 70%. Besides, the response vs control in vivo at 0.1 mg/kg in assay [1] (setting [2]) lay in the range of 40 to 70%. Further, the response vs control in vivo at 0.3 mg/kg in assay [1] (setting [2]) is less than 40%. The “FFS (1-5)” value in assay [1] (0.03 mg/kg), in assay [1] (0.1 mg/kg) and in assay [1] (0.3 mg/kg) was 3 each time. In the assay with gastrointestinal transit, the “% Restoration of Transit” value is reported as “C (>40%)”.
